Data: patent publication EP4635500A1, “THERAPEUTIC AGENT FOR BACTERIAL INFECTION” (Sumitomo Pharma Co., Ltd., priority 2022, dated 2024)
Converted amounts (≈) assume the structure as drawn. Read-outs that look alike come from different tables or passages of the source.

System: Enterobacterales
Experiment: MIC, broth microdilution, CDC/FDA Antibiotic Resistance Isolate Bank (Example 7, Tables 8, 11, 12)
Format: cell-based

**Q.** For `CN(C)c1cc(NC(=O)CNC(C)(C)C)c(O)c2c1C[C@H]1C[C@H]3[C@H](N(C)C)C(=O)C(C(N)=O)=C(O)[C@@]3(O)C(=O)C1=C2O` [Tigecyeline], which MIC (Klebsiella pneumoniae, KUB No. 5576, AR Bank # 79) is on record?
**A.** 0.5 µg/mL (≈ 0.854 µM)

**Q.** And the MIC (Klebsiella pneumoniae, KUB No. 5577, AR Bank # 80)?
**A.** 0.25 µg/mL (≈ 0.427 µM)

**Q.** And the MIC (Klebsiella pneumoniae, KUB No. 5584, AR Bank # 87)?
**A.** 2 µg/mL (≈ 3.41 µM)

**Q.** What about the MIC (Klebsiella pneumoniae, KUB No. 5594, AR Bank # 97) of the same compound?
**A.** 1 µg/mL (≈ 1.71 µM)

**Q.** And the MIC (Klebsiella pneumoniae, KUB No. 5595, AR Bank # 98)?
**A.** 0.5 µg/mL (≈ 0.854 µM)

**Q.** What about the MIC (Klebsiella pneumoniae, KUB No. 5603, AR Bank # 106) of the same compound?
**A.** 2 µg/mL (≈ 3.41 µM)

**Q.** And the MIC (Klebsiella pneumoniae, KUB No. 5604, AR Bank # 107)?
**A.** 0.25 µg/mL (≈ 0.427 µM)

**Q.** What about the MIC (Klebsiella pneumoniae, KUB No. 5606, AR Bank # 109) of the same compound?
**A.** 1 µg/mL (≈ 1.71 µM)

**Q.** And the MIC (Klebsiella pneumoniae, KUB No. 5609, AR Bank # 112)?
**A.** 0.5 µg/mL (≈ 0.854 µM)

**Q.** And the MIC (Klebsiella pneumoniae, KUB No. 5610, AR Bank # 113)?
**A.** 0.5 µg/mL (≈ 0.854 µM)

**Q.** What about the MIC (Klebsiella pneumoniae, KUB No. 5612, AR Bank # 115) of the same compound?
**A.** 2 µg/mL (≈ 3.41 µM)

**Q.** And the MIC (Klebsiella pneumoniae, KUB No. 5614, AR Bank # 117)?
**A.** 0.5 µg/mL (≈ 0.854 µM)

**Q.** What about the MIC (Klebsiella pneumoniae, KUB No. 5617, AR Bank # 120) of the same compound?
**A.** 0.5 µg/mL (≈ 0.854 µM)

**Q.** And the MIC (Klebsiella pneumoniae, KUB No. 5622, AR Bank # 125)?
**A.** 1 µg/mL (≈ 1.71 µM)

**Q.** And the MIC (Klebsiella pneumoniae, KUB No. 5623, AR Bank # 126)?
**A.** 0.5 µg/mL (≈ 0.854 µM)

**Q.** What about the MIC (Klebsiella pneumoniae, KUB No. 5626, AR Bank # 129) of the same compound?
**A.** 1 µg/mL (≈ 1.71 µM)

**Q.** And the MIC (Klebsiella pneumoniae, KUB No. 5632, AR Bank # 135)?
**A.** 1 µg/mL (≈ 1.71 µM)

**Q.** And the MIC (Klebsiella pneumoniae, KUB No. 5635, AR Bank # 138)?
**A.** 2 µg/mL (≈ 3.41 µM)

**Q.** What about the MIC (Klebsiella pneumoniae, KUB No. 5636, AR Bank # 139) of the same compound?
**A.** 0.5 µg/mL (≈ 0.854 µM)

**Q.** And the MIC (Klebsiella pneumoniae, KUB No. 5637, AR Bank # 140)?
**A.** 1 µg/mL (≈ 1.71 µM)

**Q.** And the MIC (Klebsiella pneumoniae, KUB No. 5638, AR Bank # 141)?
**A.** 1 µg/mL (≈ 1.71 µM)

**Q.** And the MIC (Klebsiella pneumoniae, KUB No. 5639, AR Bank # 142)?
**A.** 1 µg/mL (≈ 1.71 µM)

**Q.** What about the MIC (Klebsiella pneumoniae, KUB No. 5640, AR Bank # 143) of the same compound?
**A.** 2 µg/mL (≈ 3.41 µM)

**Q.** And the MIC (Klebsiella pneumoniae, KUB No. 5642, AR Bank # 145)?
**A.** 0.5 µg/mL (≈ 0.854 µM)

**Q.** What about the MIC (Klebsiella pneumoniae, KUB No. 5643, AR Bank # 146) of the same compound?
**A.** 1 µg/mL (≈ 1.71 µM)

**Q.** What about the MIC (Klebsiella pneumoniae, KUB No. 5645, AR Bank # 148) of the same compound?
**A.** 1 µg/mL (≈ 1.71 µM)

**Q.** And the MIC (Klebsiella pneumoniae, KUB No. 5649, AR Bank # 152)?
**A.** 2 µg/mL (≈ 3.41 µM)

**Q.** What about the MIC (Klebsiella pneumoniae, KUB No. 5650, AR Bank # 153) of the same compound?
**A.** 1 µg/mL (≈ 1.71 µM)

**Q.** What about the MIC (Klebsiella pneumoniae, KUB No. 5655, AR Bank # 158) of the same compound?
**A.** 1 µg/mL (≈ 1.71 µM)

**Q.** What about the MIC (Klebsiella pneumoniae, KUB No. 5657, AR Bank # 160) of the same compound?
**A.** 0.5 µg/mL (≈ 0.854 µM)

**Q.** What about the MIC (Klebsiella pneumoniae, Klebsiella pneumoniae KUB No. 5784, AR Bank #438) of the same compound?
**A.** 1 µg/mL (≈ 1.71 µM)

**Q.** And the MIC (Klebsiella pneumoniae, Klebsiella pneumoniae KUB No. 5797, AR Bank #453)?
**A.** 1 µg/mL (≈ 1.71 µM)

**Q.** And the MIC (Klebsiella pneumoniae, Klebsiella pneumoniae KUB No. 5809, AR Bank #504)?
**A.** 1 µg/mL (≈ 1.71 µM)

**Q.** What about the MIC (Klebsiella pneumoniae, Klebsiella pneumoniae KUB No. 5810, AR Bank #505) of the same compound?
**A.** 0.5 µg/mL (≈ 0.854 µM)

**Q.** What about the MIC (Klebsiella pneumoniae, Klebsiella pneumoniae KUB No. 5811, AR Bank #506) of the same compound?
**A.** 2 µg/mL (≈ 3.41 µM)

**Q.** And the MIC (Klebsiella pneumoniae, Klebsiella pneumoniae KUB No. 5812, AR Bank #507)?
**A.** 2 µg/mL (≈ 3.41 µM)

**Q.** And the MIC (Klebsiella pneumoniae, Klebsiella pneumoniae KUB No. 5827, AR Bank #522)?
**A.** 1 µg/mL (≈ 1.71 µM)

**Q.** And the MIC (Klebsiella pneumoniae, Klebsiella pneumoniae KUB No. 5828, AR Bank #523)?
**A.** 1 µg/mL (≈ 1.71 µM)

**Q.** What about the MIC (Klebsiella pneumoniae, Klebsiella pneumoniae KUB No. 5829, AR Bank #524) of the same compound?
**A.** 1 µg/mL (≈ 1.71 µM)

**Q.** What about the MIC (Klebsiella pneumoniae, Klebsiella pneumoniae KUB No. 5830, AR Bank #525) of the same compound?
**A.** 1 µg/mL (≈ 1.71 µM)

**Q.** And the MIC (Kluyvera ascorbata, KUB No. 5641, AR Bank # 144, read-out: MIC)?
**A.** 2 µg/mL (≈ 3.41 µM)

**Q.** And the MIC (Morganella morganii, KUB No. 5554, AR Bank# 57)?
**A.** 0.5 µg/mL (≈ 0.854 µM)

**Q.** What about the MIC (Morganella morganii, KUB No. 5630, AR Bank # 133, read-out: MIC) of the same compound?
**A.** 4 µg/mL (≈ 6.83 µM)

**Q.** And the MIC (Proteus mirabilis, KUB No. 5556, AR Bank# 59)?
**A.** 1 µg/mL (≈ 1.71 µM)

**Q.** And the MIC (Proteus mirabilis, KUB No. 5652, AR Bank # 155)?
**A.** 2 µg/mL (≈ 3.41 µM)

**Q.** What about the MIC (Proteus mirabilis, KUB No. 5653, AR Bank # 156) of the same compound?
**A.** 1 µg/mL (≈ 1.71 µM)

**Q.** What about the MIC (Proteus mirabilis, KUB No. 5656, AR Bank # 159) of the same compound?
**A.** 2 µg/mL (≈ 3.41 µM)

**Q.** And the MIC (Providencia rettgeri, KUB No. 5579, AR Bank # 82)?
**A.** 2 µg/mL (≈ 3.41 µM)

**Q.** What about the MIC (Raoultella ornithinolvtica, KUB No. 5631, AR Bank # 134, read-out: MIC) of the same compound?
**A.** 0.25 µg/mL (≈ 0.427 µM)

**Q.** What about the MIC (Salmonella enterica, Salmonella Senftenberg, KUB No. 5624, AR Bank # 127, read-out: MIC) of the same compound?
**A.** 0.5 µg/mL (≈ 0.854 µM)

**Q.** What about the MIC (Serratia marcescens, KUB No. 5588, AR Bank # 91) of the same compound?
**A.** 0.5 µg/mL (≈ 0.854 µM)

**Q.** And the MIC (Serratia marcescens, KUB No. 5596, AR Bank # 99)?
**A.** 1 µg/mL (≈ 1.71 µM)

**Q.** What about the MIC (Serratia marcescens, KUB No. 5618, AR Bank # 121) of the same compound?
**A.** 1 µg/mL (≈ 1.71 µM)

**Q.** What about the MIC (Serratia marcescens, KUB No. 5619, AR Bank # 122) of the same compound?
**A.** 1 µg/mL (≈ 1.71 µM)

**Q.** And the MIC (Serratia marcescens, KUB No. 5620, AR Bank # 123)?
**A.** 1 µg/mL (≈ 1.71 µM)

**Q.** What about the MIC (Serratia marcescens, KUB No. 5621, AR Bank # 124) of the same compound?
**A.** 1 µg/mL (≈ 1.71 µM)

**Q.** What about the MIC (Serratia marcescens, KUB No. 5627, AR Bank # 130) of the same compound?
**A.** 1 µg/mL (≈ 1.71 µM)

**Q.** What about the MIC (Serratia marcescens, KUB No. 5628, AR Bank # 131) of the same compound?
**A.** 1 µg/mL (≈ 1.71 µM)

**Q.** And the MIC (Serratia marcescens, Serratia marcescens KUB No. 5825, AR Bank #520)?
**A.** 1 µg/mL (≈ 1.71 µM)

**Q.** And the MIC (Serratia marcescens, Serratia marcescens KUB No. 5826, AR Bank #521)?
**A.** 2 µg/mL (≈ 3.41 µM)
